# In patent US20210251910A1, “FUMARIC ACID COMPOSITIONS WITH INCREASED BIOAVAILABILITY AND REDUCED SIDE EFFECTS” (Vitalis LLC, priority 2018, published 2021):
# What was measured:
# [1] = pretreatment with 325 mg aspirin for 4 days; Sheikh et al., Clin Ther. 2013; cited from earlier work
# [2] = Example 1: flush rating (Global Flush Severity Scale) after DMF without aspirin, with swallowed aspirin or with intraoral aspirin; assay type: in vivo, human; conditions: MS patients
# Procedure: Seven human patients with multiple sclerosis who were already taking dimethyl fumarate and had experienced flushing side effects from dimethyl fumarate were recruited for this study. […] In Period I, each patient was given their standard dose of 240 mg dimethyl fumarate orally. Each patient was asked to rate his or her flush on the Global Flush Severity Scale (GFSS) (see Paolini et al. Int. J. Clin. Pract. 62(6):896-904 (2008)), when the flush completely resolved. The Global Flushing Severity Score measures, overall, in the previous 24 hours, how each patient rates the flushing symptoms, including redness, warmth, tingling, and itchiness of the skin. […] After the flush completely resolved, then each patient recorded his or her GFSS flush rating. Not until at least two days later did Period III start. At Period III, each patient was asked to not swallow the orally administered aspirin (162 mg) but to allow the aspirin to be absorbed through the oral mucosa. The aspirin was in powdered form and the remaining aspirin in the mouth was washed out with water. Afterwards, 240 mg of dimethyl fumarate was swallowed with a glass of water. Still, the flush was rated (GFSS) after it was resolved.
# [3] = Example 2: flushing assessment in crossover study, VTS-72 vs Tecfidera; assay type: in vivo, human; conditions: Example 2 conclusion, co-administration of aspirin
# Procedure: This was a single center, pilot, comparative bioavailability, open-label, randomized, single-dose, 2-period, 2-sequence, crossover study under fasting conditions. A total of 12 healthy adult male or female volunteers were included in this pilot study. For each period, subjects were confined from at least 10 hours before dosing until 12 hours post-dose. There was a washout of 7 days or more between doses. The washout period could be increased for logistical considerations. Participation of each subject in this study lasted approximately 9 days. Subjects were administered each treatment according to the 2-period, 2-sequence, block randomization scheme.
# Treatment A: Subjects were required not to wear dentures or to remove their tongue piercing at the time of dosing. The delayed-release capsules were placed on the subject's tongue. Subjects were instructed to suck the delayed-release capsule until the acetylsalicylic acid coating was dissolved or up to a maximum of 1 minute after the delayed-release capsule had been placed on the subject's tongue. […]
# Flushing (including redness, warmth, tingling, and itchiness of the skin) was assessed at 0.5, 1, 1.5, 2, 2.5, 3, 3.5, and 4 hours post-dose using the question and the rating scale presented in Section—Flushing Assessment below. […] Flushing symptoms were recorded as adverse events.
# Flushing was assessed using the question below. […]
# [4] = Example 2: comparative bioavailability, monomethyl fumarate plasma pharmacokinetics; assay type: in vivo, human; conditions: normalized to 180 mg DMF
# Procedure: The delayed-release capsules were placed on the subject's tongue. Subjects were instructed to suck the delayed-release capsule until the acetylsalicylic acid coating was dissolved or up to a maximum of 1 minute after the delayed-release capsule had been placed on the subject's tongue. The delayed-release capsule should not be chewed, bitten, or swallowed during that 1-minute period or until the coating is dissolved; only the saliva could be swallowed. The subject was instructed to give a hand sign once the acetylsalicylic acid coating was dissolved (the capsule should feel and taste different). […]
# [5] = Example 3: flushing side effect, VTS-72 (205 mg DMF) vs Tecfidera; assay type: in vivo, human; conditions: Example 3, co-administration of aspirin
# Procedure: Flushing (including redness, warmth, tingling, and itchiness of the skin) was assessed at 0.5, 1, 1.5, 2, 2.5, 3, 3.5, and 4 hours post-dose using the question and the rating scale presented in Section—Flushing Assessment below. Half grades were not assigned. Flushing symptoms were recorded as adverse events.
# Flushing was assessed using the question below. The question was asked by the clinical staff: • Question 1: Overall, at this moment, how would you rate your flushing symptoms (including redness, warmth, tingling, and itchiness of the skin)? Score from 0 to 10 (none 0, mild 1 to 3, moderate 4 to 6, severe 7 to 9, extreme 10).
# 16 healthy individuals were enrolled for this study.
compound,measurement,setting,value
"CC(=O)Oc1ccccc1C(=O)O [aspirin, acetylsalicylic acid]",effect of aspirin pretreatment on the pharmacokinetic profile of DMF,[1],did not affect
same,reduction of severity of flush (GFSS) as compared to Period I,[2]; Period II: 162 mg aspirin orally swallowed followed by 240 mg dimethyl fumarate,33%
same,reduction of severity of flush (GFSS) as compared to Period I,"[2]; Period III: 162 mg aspirin absorbed through the oral mucosa, then 240 mg dimethyl fumarate",52%
same,reduction of the flushing side effect,[3],more than 35%
same,impact of co-administration of aspirin on the Cmax of DMF,[4],did not have significant impact
same,reduction of the flushing side effect,[5],about 61%
